From patent publication EP0320630A1, “Enantiometric iodobenzamides” (THE VANDERBILT UNIVERSITY, priority 1987, dated 1989) come the findings set out here.

The target in test [1] is T1, dopamine D-2 receptor (Rattus norvegicus, UniProt P61169).
T1 construct: 90 µL of the striatal membrane preparation; from tissue; host or cells: rat striatum (membrane homogenate)
Description: Blocking of [3H](S)-sulpiride binding to rat striatal membranes. Conditions: radioligand [3H](S)-sulpiride at 5.0 nM; rat striatal membrane preparation; 30 min at 37 °C. As to the method:
(§1) The procedure, described by de […]., and Beart P.M., Eur. J. Pharmacol. 106 133-139 (1984), is as follows: Male Sprague-Dawley rats (150-200 g) were killed by decapitation and their brains quickly removed and dissected on ice. Striata were dissected and homogenized in 40 vol of ice-cold 50 mM Tris-HCl buffer (pH 7.4) containing 120 mM sodium chloride, 5 mM potassium chloride, 2 mM calcium chloride, and 1 mM magnesium chloride using a Brinkman Polytron. The suspension was centrifuged at 30,000 x g for 10 min at 4 °C, and the pellet was resuspended in 40 vol of fresh buffer. The suspension was incubated at 37 °C for 10 min, centrifuged again at 30,000 x g for 10 min at 4 °C, and the final pellet was resuspended with the polytron in 200 vol of ice cold buffer. […] Tubes were incubated for 30 min at 37 °C, poured over Whatman GF/B filters under vacuum, and the filters were rinsed three times with 4 mL of ice cold buffer.

In test [2] the target is T1, dopamine D-2 receptor. Briefly: Blocking of [3H]spiperone binding to rat striatal membranes. Conditions: radioligand [3H]spiperone at 0.5 nM; rat striatal membrane preparation; 30 min at 37 °C. As to the method:
as §1

Structures are written as SMILES.

T1 sequence (P61169 whole entry): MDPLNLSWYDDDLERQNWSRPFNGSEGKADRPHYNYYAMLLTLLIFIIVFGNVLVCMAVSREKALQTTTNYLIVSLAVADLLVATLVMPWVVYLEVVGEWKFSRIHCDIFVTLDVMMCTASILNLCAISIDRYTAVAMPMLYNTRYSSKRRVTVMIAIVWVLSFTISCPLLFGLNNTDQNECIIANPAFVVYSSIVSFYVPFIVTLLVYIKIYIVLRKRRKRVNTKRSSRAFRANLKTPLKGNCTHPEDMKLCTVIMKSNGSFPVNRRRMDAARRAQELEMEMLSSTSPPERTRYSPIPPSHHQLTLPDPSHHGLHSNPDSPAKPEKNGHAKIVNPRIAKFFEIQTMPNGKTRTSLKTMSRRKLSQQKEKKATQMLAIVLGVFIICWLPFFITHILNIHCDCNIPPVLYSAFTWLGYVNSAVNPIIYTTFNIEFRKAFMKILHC

With `CCN1CCC[C@@H]1CNC(=O)c1cc(I)ccc1OC`, the 50% inhibitory concentration (IC50) – broadly, the midpoint of a concentration-inhibition curve – was found to be 145 ± 5 nM in test [1] and 560 ± 200 nM in test [2].

In the case of `CCN1CCC[C@H]1CNC(=O)c1cc(I)ccc1OC`, the results for the 50% inhibitory concentration (IC50) in test [1] and in test [2] were 3.3 ± 0.9 nM and 16.4 ± 4.9 nM, respectively.
